Earlier results in patent publication US8198305B2, “1,2-benzisoxazol-3-yl compounds” (Concert Pharmaceuticals Inc., priority 2007, dated 2012).
Read-outs that look alike come from different tables or passages of the source.

Conditions: phase III clinical trial

Which results are given for COc1cc(C(C)=O)ccc1OCCCN1CCC(c2noc3cc(F)ccc23)CC1 [iloperidone, 1-[4-[3-[4-(6-fluoro-1,2-benzisoxazol-3-yl)piperidin-1-yl]propoxy]-3-methoxyphenyl]ethanone]?
QTc prolongation (good metabolizers of iloperidone): 10.4 ms; QTc prolongation (poor metabolizers of iloperidone): 15.0 ms
